Measured values as given in patent US20240043435A1, “TYK-2 INHIBITOR” (BEIGENE, LTD., priority 2020, published 2024).

What was measured:
[1] = target: T1, JAK1-JH2 protein (aa 561-860, in-house) (Homo sapiens, UniProt P23458); test: JAK1-JH2 biochemical assay (HTRF probe displacement); format: binding
T1 construct: JAK1-JH2 protein (aa 561-860, in-house); made in house
Method: Assay B: JAK1-JH2 Biochemical Assay
Compounds disclosed herein were tested for blocking of JAK1-JH2 protein (aa 561-860, in-house) with its probe in an assay based on Homogeneous Time Resolved Fluorescence. Compound dilution is done according to the following protocol: (1) Prepare 500× compounds solution in DMSO from 500 uM by 5-fold dilution, total 10 doses were included; (2) Prepare 10× compounds solution in an assay buffer containing 20 mM HEPES, pH 7.5, 10 mM MgCl2, 0.005% BSA, 2 mM DTT, 0.015% Brij-35 by transferring 1 μl serial 500× stock solution into 49 μl assay buffer. 4 μL of 1.17 nM recombinant JAK1-JH2 protein was pre-incubated with 1 μl of 10× serial dilution of compounds at room temperature for 0.5 hour. […] The HTRF signals (ex337 nm, em620 nm/665 nm) were read on BMG PHERAstar FS instrument. The inhibition percentage of JAK1 interaction with its probe in presence of increasing concentrations of compounds was calculated based on the ratio of fluorescence at 615 nm to that at 665 nm. The IC50 for each compound was derived from fitting the data to the four-parameter logistic equation by Dotmatics.

[2] = target: T2, TYK2-JH2 (aa 575-869, in-house) protein (Homo sapiens, UniProt P29597); test: TYK2-JH2 biochemical assay (HTRF probe displacement); format: binding; conditions: for Selectivity fold (TYK2/JAK1) / IC50: Biochemical assay; for Selectivity fold (TYK2/JAK1): JAK1-JH2 IC50 vs TYK2-JH2 IC50; for IC50: read-out: TYK2-JH2 IC50; for fold less potent (orth vs meta methylsulfonyl; B15 vs B1, B14 vs B5): Tyk2 JH2 bio-chemical potency
T2 construct: TYK2-JH2 (aa 575-869, in-house) protein; made in house
T2 sequence (P29597 575-869): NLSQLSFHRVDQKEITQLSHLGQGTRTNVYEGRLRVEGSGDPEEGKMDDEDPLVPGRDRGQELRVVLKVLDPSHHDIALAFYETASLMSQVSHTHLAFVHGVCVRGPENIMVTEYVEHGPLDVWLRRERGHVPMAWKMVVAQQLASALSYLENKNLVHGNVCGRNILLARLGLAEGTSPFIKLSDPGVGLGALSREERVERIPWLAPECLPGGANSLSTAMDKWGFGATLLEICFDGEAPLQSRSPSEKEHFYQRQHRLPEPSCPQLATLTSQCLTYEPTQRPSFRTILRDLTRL
How it was run: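 HTRF probe-displacement format: compound dilutions (10 points, 5-fold, from 500 uM in DMSO at 500×) were combined with 0.2 nM TYK2-JH2 protein for 0.5 h at room temperature in HEPES pH 7.5 buffer with MgCl2, BSA, DTT and Brij-35. Percent inhibition came from the 615/665 nm fluorescence ratio, fitted to a four-parameter logistic for IC50.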

[3] = system: JAK2, TYK2/p-STAT4 (Tyr693) activated by IL-12 in NK-92 cell line; test: IL-12-JAK2, TYK2/p-STAT4 (Tyr693) inhibition IC50 cellular assay; format: cell-based; conditions: NK92, Cellular assay; read-out: pSTAT4/IL-12 IC50
How it was run: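 p-STAT4 (Tyr693) in lysates was measured by AlphaLISA SureFire Ultra after a 30 min IL-12 challenge (40 ng/ml final) at 37° C. Overnight-starved, IL-2-free NK-92 cells had been pretreated 1 h with compound at 10000 to 0.61 nM (4-fold, 8 points). IC50 values came from four-parameter logistic fitting.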

[4] = system: pSTAT5/GM-CSF; test: pSTAT5/GM-CSF cellular assay (JAK2 selectivity); format: cell-based; conditions: for Selectivity fold (TYK2/JAK2): pSTAT5/GM-CSF IC50 over pSTAT4/IL-12 IC50

T1 sequence (P23458 561-860): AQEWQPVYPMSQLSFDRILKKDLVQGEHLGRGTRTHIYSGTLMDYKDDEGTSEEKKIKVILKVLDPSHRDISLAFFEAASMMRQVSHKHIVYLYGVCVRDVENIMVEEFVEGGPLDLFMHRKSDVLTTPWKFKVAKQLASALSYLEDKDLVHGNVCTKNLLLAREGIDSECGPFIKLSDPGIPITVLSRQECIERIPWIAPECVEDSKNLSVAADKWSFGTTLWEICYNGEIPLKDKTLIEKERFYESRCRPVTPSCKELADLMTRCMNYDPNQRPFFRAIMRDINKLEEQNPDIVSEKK

IC50 [1] [nM]	Selectivity fold (TYK2/JAK1) [2] [fold]	IC50 [2] [nM]	IC50 [3] [nM]	IC50 [4] [nM]	Compound	fold less potent (orth vs meta methylsulfonyl; B15 vs B1, B14 vs B5) [2] [fold]	Selectivity fold (TYK2/JAK2) [4] [fold]
828	159	5.2	–	–	CC(=O)Nc1cc(Nc2cccc(S(C)(=O)=O)c2)c(C2CCCO2)cn1 (stereo not drawn) [Example A2, N-[4-[(3-methanesulfonylphenyl)amino]-5-(oxolan-2-yl)pyridin-2-yl]acetamide]	–	–
59	113	0.52	–	–	CC(=O)Nc1cc(Nc2cccc(S(C)(=O)=O)c2)c(-c2cnc(C)cn2)cn1 [Example A4, N-(5-(5-methylpyrazin-2-yl)-4-((3-(methylsulfonyl)phenyl)amino)pyridin-2-yl)acetamide]	–	–
59	120	0.49	–	–	CC(=O)Nc1cc(Nc2cccc(S(C)(=O)=O)c2)c(-c2cnccn2)cn1 [Example A5, N-(4-((3-(methylsulfonyl)phenyl)amino)-5-(pyrazin-2-yl)pyridin-2-yl)acetamide]	–	–
> 10000	>14	670	–	–	CC(=O)Nc1cc(Nc2cccc(S(C)(=O)=O)c2)c(N2CCCC2=O)cn1 [Example A7, N-(4-((3-(methylsulfonyl)phenyl)amino)-5-(2-oxopyrrolidin-1-yl)pyridin-2-yl)acetamide]	–	–
9	8.1	1.1	–	–	CC(=O)Nc1cc(Nc2ccccc2)c(-c2ccccn2)cn1 [Example B3, N-(4′-(phenylamino)-[2,3′-bipyridin]-6′-yl)acetamide]	–	–
–	–	0.03	0.904	373	COc1ccncc1-c1cc(Nc2cc(NC(C)=O)ncc2-c2ccc3c(n2)OCC(C)(C)O3)nc(S(C)(=O)=O)c1 [Example Q101, N-(5-(2,2-dimethyl-2,3-dihydro-[1,4]dioxino[2,3-b]pyridin-6-yl)-4-((4-methoxy-6′-(methylsulfonyl)-[3,4′-bipyridin]-2′-yl)amino)pyridin-2-yl)acetamide]	–	412
–	–	0.034	0.302	> 10000	CC(=O)Nc1cc(Nc2cc(-c3cnccc3C#N)cc(S(C)(=O)=O)n2)c(-c2ccc3c(n2)OCC(C)(C)O3)cn1 [Example Q115, N-(4-((4-cyano-6′-(methyslulfonyl)-[3,4′-bipyridin]-2′-yl)amino)-5-(2,2-dimethyl-2,3-dihydro-[1,4]dioxino[2,3-b]pyridin-6-yl)pyridin-2-yl)acetamide]	–	>33112
–	–	0.031	1.19	1150	CC(=O)Nc1cc(Nc2cc(-c3cscn3)cc(S(C)(=O)=O)n2)c(-c2ccc3c(n2)OCC(C)(C)O3)cn1 [Example Q119, N-(5-(2,2-dimethyl-2,3-dihydro-[1,4]dioxino[2,3-b]pyridin-6-yl)-4-((6-(methylsulfonyl)-4-(thiazol-4-yl)pyridin-2-yl)amino)pyridin-2-yl)acetamide]	–	965
–	–	0.041	2.18	> 10000	CC(=O)Nc1cc(Nc2cccc(S(C)(=O)=O)n2)c(C2=NC(C)(C)CS2)cn1 [Example R1, N-(5-(4,4-dimethyl-4,5-dihydrothiazol-2-yl)-4-((6-(methylsulfonyl)pyridin-2-yl)amino)pyridin-2-yl)acetamide]	–	>4587

Compound	IC50 [1] [nM]	Selectivity fold (TYK2/JAK1) [2] [fold]	IC50 [2] [nM]	IC50 [3] [nM]	IC50 [4] [nM]	fold less potent (orth vs meta methylsulfonyl; B15 vs B1, B14 vs B5) [2] [fold]	Selectivity fold (TYK2/JAK2) [4] [fold]
CC(=O)Nc1cc(Nc2ncccc2S(C)(=O)=O)c(-c2ccccn2)cn1 [Example B14, N-(4′-((3-(methylsulfonyl)pyridin-2-yl)amino)-[2,3′-bipyridin]-6′-yl)acetamide]	145	1	80	–	–	5000	–
CC(=O)Nc1cc(Nc2ccccc2S(C)(=O)=O)c(-c2ccccn2)cn1 [Example B15, N-(4′-((2-(methylsulfonyl)phenyl)amino)-[2,3′-bipyridin]-6′-yl)acetamide]	234	1	117	–	–	3079	–
